We go through 27 compounds from patent publication US12454529B2, “Piperazine cyclic ureas” (SIRONAX LTD., priority 2020, dated 2025).

The test system of one test is HT-29 cells. Kind of test: HT-29 cell necrosis/necroptosis inhibition (TNF-α + SMAC mimetic + zVAD-FMK; CellTiter-Glo cell viability). The test is classed as cell-based. The conditions noted are these: HT-29 cells, TNF-α 10 ng/ml + SMAC mimetic 6 μM + zVAD-FMK 10 μM, 20 hours; geometric mean, 10 points in duplicate; read-out: EC50 (Cell activity; Necrosis/Necroptosis Inhibitory Activity, Compounds 143-323). Put shortly: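 HT-29 cells (~5,000/well) were switched to FBS-free McCOY's 5A holding TNF-α (10 ng/ml), SMAC mimetic (6 μM) and zVAD-FMK (10 μM), then dosed with a 10-point 1:3 series for 20 h at 37 °C. CellTiter-Glo luminescence gave viability; geometric mean EC50 from duplicates.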
`Cc1nc(C)n(-c2nc(N3CCN(C(=O)N4N=CCC4c4ncc(C)s4)CC3)ncc2F)n1` (stereo not drawn) [Compound 231, (4-(4-(3,5-dimethyl-1H-1,2,4-triazol-1-yl)-5-fluoropyrimidin-2-yl)piperazin-1-yl)(5-(5-methylthiazol-2-yl)-4,5-dihydro-1H-pyrazol-1-yl)methanone]: the EC50 is 0.1 to 100 nM.

Still in this test, the particulars now being: Homo sapiens; HT-29 cells, TNF-α 10 ng/ml + SMAC mimetic 6 μM + zVAD-FMK 10 μM, 20 hours; geometric mean, 10 points in duplicate; read-out: EC50 (Cell activity; Necrosis/Necroptosis Inhibitory Activity, Compounds 1-142).
In the case of `Cc1nn(CC(N)=O)nc1-c1nc(N2CCN(C(=O)N3N=CC[C@H]3c3cc(F)cc(F)c3)CC2)ncc1F` [Compound 32, (S)-2-(4-(2-(4-(5-(3,5-difluorophenyl)-4,5-dihydro-1H-pyrazole-1-carbonyl)piperazin-1-yl)-5-fluoropyrimidin-4-yl)-5-methyl-2H-1,2,3-triazol-2-yl)acetamide], the 50% effective concentration (EC50) lay within 0.1 to 100 nM. Still for that read-out and setting: the same measure for `COC(=O)c1cc(C)n(-c2nc(N3CCN(C(=O)N4N=CC[C@H]4c4cc(F)cc(F)c4)CC3)ncc2F)c1` [Compound 91, methyl (5)-1-(2-(4-(5-(3,5-difluorophenyl)-4,5-dihydro-1H-pyrazole-1-carbonyl)piperazin-1-yl)-5-fluoropyrimidin-4-yl)-5-methyl-1H-pyrrole-3-carboxylate]: 0.1 to 100 nM; for `Cn1cc(-c2nc(N3CCN(C(=O)N4N=CC[C@H]4c4cc(F)cc(C#N)c4)CC3)ncc2F)nn1` [Compound 40]: 0.1 to 100 nM. In the case of `Cn1ncc(Cl)c1-c1nc(N2CCN(C(=O)N3N=CC[C@H]3c3cc(F)cc(C#N)c3)CC2)ncc1F` [Compound 15, (5)-3-(1-(4-(4-(4-chloro-1-methyl-1H-pyrazol-5-yl)-5-fluoropyrimidin-2-yl)piperazine-1-carbonyl)-4,5-dihydro-1H-pyrazol-5-yl)-5-fluorobenzonitrile], the EC50 lay in the range of 0.1 to 100 nM. The same measure, in the same setting: the same measure for `O=C(N1CCN(c2ncc(F)c(-c3ccc[nH]c3=O)n2)CC1)N1N=CC[C@H]1c1cc(F)cc(F)c1` [Compound 87, (S)-3-(2-(4-(5-(3,5-difluorophenyl)-4,5-dihydro-1H-pyrazole-1-carbonyl)piperazin-1-yl)-5-fluoropyrimidin-4-yl)pyridin-2(1H)-one]: 0.1 to 100 nM. Still for that read-out and setting: the same measure for `Cn1ncc(Cl)c1-c1nc(N2CCN(C(=O)N3N=CC[C@H]3c3cc(F)cc(F)c3)CC2)ncc1F` [Compound 68, (S)-(4-(4-(4-chloro-1-methyl-1H-pyrazol-5-yl)-5-fluoropyrimidin-2-yl)piperazin-1-yl)(5-(3,5-difluorophenyl)-4,5-dihydro-1H-pyrazol-1-yl)methanone]: 0.1 to 100 nM; for `O=C(N1CCN(c2ncc(F)c(-c3cc[nH]n3)n2)CC1)N1N=CC[C@H]1c1cc(F)cc(F)c1` [Compound 7, (S)-(5-(3,5-difluorophenyl)-4,5-dihydro-1H-pyrazol-1-yl)(4-(5-fluoro-4-(1H-pyrazol-3-yl)pyrimidin-2-yl)piperazin-1-yl)methanone]: 0.1 to 100 nM; for `Cc1cnn(C)c1-c1nc(N2CCN(C(=O)N3N=CC[C@H]3c3cc(F)cc(F)c3)CC2)ccc1F` [Compound 113, (S)-(5-(3,5-difluorophenyl)-4,5-dihydro-1H-pyrazol-1-yl)(4-(6-(1,4-dimethyl-1H-pyrazol-5-yl)-5-fluoropyridin-2-yl)piperazin-1-yl)methanone]: 0.1 to 100 nM. For the compound `Cn1nncc1-c1nc(N2CCN(C(=O)N3N=CC[C@H]3c3cc(F)cc(C#N)c3)CC2)ncc1F` [Compound 41], the EC50 was in the range of 0.1 to 100 nM. Consider `COc1cc(-c2nc(N3CCN(C(=O)N4N=CC[C@H]4c4cc(F)cc(F)c4)CC3)ncc2F)nc(OC)n1` [Compound 19, (S)-(5-(3,5-difluorophenyl)-4,5-dihydro-1H-pyrazol-1-yl)(4-(5-fluoro-2′,6′-dimethoxy-[4,4′-bipyrimidin]-2-yl)piperazin-1-yl)methanone], for which the concentration giving a half-maximal response (EC50) was 0.1 to 100 nM. Same read-out and setting: then `Cc1nn(CC(N)=O)c(C)c1-c1nc(N2CCN(C(=O)N3N=CC[C@H]3c3cc(F)cc(F)c3)CC2)ncc1F` [Compound 119, (S)-2-(4-(2-(4-(5-(3,5-difluorophenyl)-4,5-dihydro-1H-pyrazole-1-carbonyl)piperazin-1-yl)-5-fluoropyrimidin-4-yl)-3,5-dimethyl-1H-pyrazol-1-yl)acetamide], with 0.1 to 100 nM.

Staying with this test, now noted: Homo sapiens; HT-29 cells, TNF-α 10 ng/ml + SMAC mimetic 6 μM + zVAD-FMK 10 μM, 20 hours; geometric mean, 10 points in duplicate; read-out: EC50 (Cell activity; Necrosis/Necroptosis Inhibitory Activity, Compounds 143-323).
Take `Cn1ncnc1-c1nc(N2CCN(C(=O)N3N=CCC3c3ncccc3Cl)CC2)ncc1F` (stereo not drawn) [Compound 221]: the EC50 was in the range of 0.1 to 100 nM.

Regarding `[2H]C1(c2cc(F)cc(F)c2)CC=NN1C(=O)N1CCN(c2ncc(F)c(-n3nc(C)nc3C)n2)CC1` (stereo not drawn) [Compound 262, (5-(3,5-difluorophenyl)-4,5-dihydro-1H-pyrazol-1-yl-5-d)(4-(4-(3,5-dimethyl-1H-1,2,4-triazol-1-yl)-5-fluoropyrimidin-2-yl)piperazin-1-yl)methanone], the half-maximal effective concentration (EC50) lay in the range of 0.1 to 100 nM. Still for that read-out and setting: the same measure for `Cc1nc(C2CC=NN2C(=O)N2CCN(c3ncc(F)c(-c4nnc(C)s4)n3)CC2)co1` (stereo not drawn) [Compound 209, (4-(5-fluoro-4-(5-methyl-1,3,4-thiadiazol-2-yl)pyrimidin-2-yl)piperazin-1-yl)(5-(2-methyloxazol-4-yl)-4,5-dihydro-1H-pyrazol-1-yl)methanone]: 100 to 1000 nM; for `Cc1nc(C)n(-c2nc(N3CCN(C(=O)N4N=CCC4c4cc(Br)cc(F)c4F)CC3)ncc2F)n1` (stereo not drawn) [Compound 237, (5-(5-bromo-2,3-difluorophenyl)-4,5-dihydro-1H-pyrazol-1-yl)(4-(4-(3,5-dimethyl-1H-1,2,4-triazol-1-yl)-5-fluoropyrimidin-2-yl)piperazin-1-yl)methanone]: 0.1 to 100 nM; for `Cc1nn(-c2cc(N3CCN(C(=O)N4N=CC[C@H]4c4cc(F)cc(C#N)c4)CC3)ncn2)c(C)c1Br` [Compound 278, (S)-3-(1-(4-(6-(4-bromo-3,5-dimethyl-1H-pyrazol-1-yl)pyrimidin-4-yl)piperazine-1-carbonyl)-4,5-dihydro-1H-pyrazol-5-yl)-5-fluorobenzonitrile]: 0.1 to 100 nM.

Turning to `Cn1nc(C#N)nc1-c1nc(N2CCN(C(=O)N3N=CCC3c3cncc(F)c3)CC2)ncc1F` (stereo not drawn) [Compound 229, 5-(5-fluoro-2-(4-(5-(5-fluoropyridin-3-yl)-4,5-dihydro-1H-pyrazole-1-carbonyl)piperazin-1-yl)pyrimidin-4-yl)-1-methyl-1H-1,2,4-triazole-3-carbonitrile], the concentration giving a half-maximal response (EC50) was 0.1 to 100 nM. Regarding `Cc1nc(C)n(-c2cc(N3CCN(C(=O)N4N=CC[C@H]4c4cc(F)cc(C#N)c4)CC3)c(F)cn2)n1` [Compound 272, (S)-3-(1-(4-(2-(3,5-dimethyl-1H-1,2,4-triazol-1-yl)-5-fluoropyridin-4-yl)piperazine-1-carbonyl)-4,5-dihydro-1H-pyrazol-5-yl)-5-fluorobenzonitrile], the EC50 is 0.1 to 100 nM. Same read-out and setting: the same measure for `Cc1nc(C(=O)O)nn1-c1nc(N2CCN(C(=O)N3N=CC[C@H]3c3cc(F)cc(C#N)c3)CC2)ncc1F` [Compound 190]: 1000 to 10000 nM. Consider `Cc1nc(C)n(-c2nc(N3CCN(C(=O)N4N=CC[C@@H]4c4ncc(C)s4)CC3)ncc2F)n1` [Compound 242, (R)-(4-(4-(3,5-dimethyl-1H-1,2,4-triazol-1-yl)-5-fluoropyrimidinyl)piperazin-1-yl)(5-(5-methylthiazol-2-yl)-4,5-dihydro-1H-pyrazol-1-yl)methanone], for which the EC50 was in the range of 0.1 to 100 nM. On the same count and under the same terms, then `Cc1c(N)nn(C)c1-c1nc(N2CCN(C(=O)N3N=CC[C@H]3c3cc(F)cc(F)c3)CC2)ncc1F` [Compound 155, (S)-(4-(4-(3-amino-1,4-dimethyl-1H-pyrazol-5-yl)-5-fluoropyrimidinyl)piperazin-1-yl)(5-(3,5-difluorophenyl)-4,5-dihydro-1H-pyrazol-1-yl)methanone], with 0.1 to 100 nM; and `Cc1nn(-c2ccnc(N3CCN(C(=O)N4N=CC[C@H]4c4cncc(F)c4)CC3)n2)c(C)c1C(N)=O` [Compound 285, (S)-1-(2-(4-(5-(5-fluoropyridin-3-yl)-4,5-dihydro-1H-pyrazole-1-carbonyl)piperazin-1-yl)pyrimidin-4-yl)-3,5-dimethyl-1H-pyrazole-4-carboxamide], with 0.1 to 100 nM; and `Cc1nc(C)n(-c2nc(N3CCN(C(=O)N4N=CCC4c4coc(C)n4)CC3)ncc2F)n1` (stereo not drawn) [Compound 211, (4-(4-(3,5-dimethyl-1H-1,2,4-triazol-1-yl)-5-fluoropyrimidin-2-yl)piperazin-1-yl)(5-(2-methyloxazol-4-yl)-4,5-dihydro-1H-pyrazol-1-yl)methanone], with 0.1 to 100 nM. The same measure, in the same setting: then `Cc1nc(C)n(-c2nc(N3CCN(C(=O)N4N=CC[C@H]4c4cc(F)cc(F)c4)CC3)ncc2Cl)n1` [Compound 259, (S)-(4-(5-chloro-4-(3,5-dimethyl-1H-1,2,4-triazol-1-yl)pyrimidin-2-yl)piperazin-1-yl)(5-(3,5-difluorophenyl)-4,5-dihydro-1H-pyrazol-1-yl)methanone], with 0.1 to 100 nM. With `CCn1nc(C)n(-c2nc(N3CCN(C(=O)N4N=CC[C@H]4c4cc(F)cc(F)c4)CC3)ncc2F)c1=O` [Compound 182, (S)-4-(2-(4-(5-(3,5-difluorophenyl)-4,5-dihydro-1H-pyrazole-1-carbonyl)piperazin-1-yl)-5-fluoropyrimidin-4-yl)-2-ethyl-5-methyl-2,4-dihydro-3H-1,2,4-triazol-3-one], the EC50 was 0.1 to 100 nM. Regarding `Cc1ncn(-c2nc(N3CCN(C(=O)N4N=CC[C@H]4c4cncc(F)c4)CC3)ncc2F)n1` [Compound 311, (S)-(4-(5-fluoro-4-(3-methyl-1H-1,2,4-triazol-1-yl)pyrimidin-2-yl)piperazin-1-yl)(5-(5-fluoropyridin-3-yl)-4,5-dihydro-1H-pyrazol-1-yl)methanone], the EC50 was 0.1 to 100 nM.
